Assay results: US8852860B2, “Sperm-specific cation channel, CatSper1 and uses therefor” (Children's Medical Center Corporation, priority 2001, dated 2014)

Key:
[1] = tested on: caudal epididymal wild-type sperm; test: Ca2+ imaging of Fluo-4 loaded sperm, wild-type; format: cell-based, mouse
Description: (§1) For Ca^2+ imaging, sperm were prepared in HS medium (Wennemuth, et al. (2000), J Biol Chem 275, 21210-7) and loaded with 10 μM Fluo-4-AM and 0.05% Pluronic F-127 for 30 min. at room temperature. Washed cells were seeded onto Cell-Tak coated cover slips. Attached motile sperm were imaged in nonconfocal mode to avoid motion-induced fluorescence change artifacts. The 488 nm wavelength beam of an Argon-Krypton laser was used for excitation and fluorescence emission was collected at 512 nm (Zeiss LSM 410).
(§2) Wild-type and mutant sperm were loaded with Fluo-4 and their fluorescence measured by single photon confocal microscopy.

[2] = tested on: CatSper1^−/− sperm; test: Ca2+ imaging of Fluo-4 loaded sperm, CatSper1-/- mutant; format: cell-based, mouse
Description: as §1, §2

**Q.** With Nc1nc2c(nc(Br)n2[C@@H]2O[C@@H]3COP(=O)(O)O[C@H]3[C@H]2O)c(=O)[nH]1 [8-Br-cGMP] as the molecule, how does the “sperm head and tail [Ca^2+]i change (Fluo-4 fluorescence)” value ([1]; wild-type sperm, 1 mM membrane-permeant cyclic nucleotide in bath) read?
**A.** The value was “initiated Ca^2+ influx in sperm”.

**Q.** And the “cyclic nucleotide-induced Ca^2+ influx in mutant sperm” value [2]?
**A.** The value was “neither cAMP nor cGMP elicited significant Ca^2+ influx”.

**Q.** Which “Ca^2+ influx (control for dye loading), wild-type sperm” value ([1]; wild-type sperm) does the source give for CC(=O)[C@H]1CC[C@H]2[C@@H]3CCC4=CC(=O)CC[C@]4(C)[C@H]3CC[C@]12C [progesterone] here?
**A.** Its value is “initiated a large Ca^2+ influx”.

**Q.** What about the “Ca^2+ influx (control for dye loading), mutant sperm” value [2] of the same molecule?
**A.** The value was “initiated a large Ca^2+ influx”.

**Q.** O=C([O-])O.[Na+] [sodium bicarbonate] was tested. Which “[Ca^2+]i increase on addition to the bath” value ([1]; 20 mM in bath) did it give?
**A.** Its value is “induced an increase in [Ca^2+]i that was smaller than that observed with cyclic AMP or GMP”.

**Q.** With CN[C@@H]1C[C@H]2O[C@@](C)([C@@H]1OC)n1c3ccccc3c3c4c(c5c6ccccc6n2c5c31)C(=O)NC4 [staurosporine] as the molecule, how does the “block of cyclic AMP and cyclic GMP induced [Ca^2+]i increase” value ([1]; sperm incubated with 1 μM, 10 minutes) read?
**A.** The value was “not blocked”.
